# Experimental data as given in patent US20090088380A1, “GHRH ANALOGS AND THERAPEUTIC USES THEREOF” (priority 2007, published 2009).
# Non-standard residues stand in square brackets, D forms with d. Residues, ends and D or L forms follow the SMILES beside them.
# Test system: Rat Growth Hormone
# Experiment: In vivo GH secretion in adult female Sprague-Dawley rats, single SC or IV injection, RIA
# Details: for GH AUC 45 min / GH AUC 300 min / GH AUC 120 min: in ng·min/mL (unit assumed)
# Procedure: In order to assess such use of the GHRH analogs, the following experiments were undertaken. More specially, the goal was to assess the pharmacodynamic and pharmacokinetic profiles and acute toxicity of GHRH analog #5 when administered once by subcutaneous or intravenous injection to female Sprague-Dawley rats followed by a 14-day observation period and the pharmacodynamic profile in a male Beagle dog when the GHRH analog was administered at escalating doses to the same dog by subcutaneous injection with at least 2-day washout period. The above GHRH analog is a variation of a synthetic acetate salt of an amidated synthetic 29-amino acid peptide that corresponds to the amino-terminal segment of the naturally-occurring human growth hormone—releasing hormone (GHRH) with four amino acid substitutions in positions 2, 10, 15, and 22.
# Human GHRH analog #5 in 0.9% sodium chloride for injection USP was administered once either by intravenous (IV) or subcutaneous (SC) injection to female rats followed by a 14-day observation period, as shown in Table 2. Prior to administration, all dosing formulations were filtered using a 0.22 μm filter to ensure sterility. The actual amount of GHRH analog #5 administered was calculated and adjusted based on the animal's most recent body weight. Dosing started at approximately the same time each day, commencing at 9:00 am ±30 minutes.
# For pharmacodynamic investigations, blood samples (approximately 1.3 ml) were collected from 2 animals per group per time point (maximum 3 time points/animal) via a jugular venipuncture at the following time points: […] All blood samples were collected into potassium EDTA tubes and centrifuged under refrigeration (2 to 8° C., 1500 g for 10 minutes).
# Rat Growth Hormone Determination • Plasma GH was determined by Linco Diagnostic Services using their own kit. Linco's Rat Growth Hormone radioimmunoassay kit (RIA) (RGH-45HK) is intended for the quantitative determination of Rat Growth Hormone in serum, plasma, and tissue culture media. It is a completely homologous assay since the antibody was raised against recombinant Rat Growth Hormone and both the tracer and the standard are prepared with the same recombinant Rat Growth Hormone. The kit includes standards, antibody, tracer, quality controls, precipitating reagents and buffer necessary to complete a RIA. The assay was conducted under the following conditions: overnight; equilibrium incubation at room temperature; sample volume: 100 μl serum, plasma, or cell culture media. The label used was 125I-Rat Growth Hormone (20,000 CPM/tube).
smiles,measurement,setting,value
"CC[C@H](C)[C@H](NC(=O)[C@H](C)NC(=O)[C@H](CC(=O)O)NC(=O)[C@@H](C)NC(=O)[C@@H](N)Cc1ccc(O)cc1)C(=O)N[C@@H](Cc1ccccc1)C(=O)N[C@H](C(=O)N[C@@H](CC(N)=O)C(=O)N[C@@H](CO)C(=O)N[C@H](Cc1ccc(O)cc1)C(=O)N[C@@H](CCCNC(=N)N)C(=O)N[C@@H](CCCCN)C(=O)N[C@H](C(=O)N[C@@H](CC(C)C)C(=O)N[C@H](C)C(=O)N[C@@H](CCC(N)=O)C(=O)N[C@@H](CC(C)C)C(=O)N[C@@H](CO)C(=O)N[C@@H](C)C(=O)N[C@@H](CCCNC(=N)N)C(=O)N[C@@H](CCCCN)C(=O)N[C@@H](CCCCN)C(=O)N[C@@H](CC(C)C)C(=O)N[C@@H](CCC(N)=O)C(=O)N[C@@H](CC(=O)O)C(=O)N[C@H](C(=O)N[C@@H](CCSC)C(=O)N[C@@H](CO)C(=O)N[C@@H](CCCNC(=N)N)C(N)=O)[C@@H](C)CC)C(C)C)[C@@H](C)O [GHRH analog #5, [D-Ala^2, D-Tyr^10, D-Ala^15, Lys^22] hGHRH(1-29)-NH2] (H-Y[dA]DAIFTNS[dY]RKVL[dA]QLSARKKLQDIMSR-NH2)",Plasma Rat Growth Hormone,"0.001 mg/kg BW IV, 4 min",26.2 ng/mL
same,Plasma Rat Growth Hormone,"0.001 mg/kg BW IV, 10 min",25.85 ng/mL
same,Plasma Rat Growth Hormone,"0.001 mg/kg BW IV, 15 min",34.65 ng/mL
same,Plasma Rat Growth Hormone,"0.001 mg/kg BW IV, 45 min",21.15 ng/mL
same,Plasma Rat Growth Hormone,"0.001 mg/kg BW IV, 300 min",67.15 ng/mL
same,GH AUC 45 min,0.001 mg/kg BW IV,1197
same,GH AUC 300 min,0.001 mg/kg BW IV,12280
same,Plasma Rat Growth Hormone,"0.001 mg/kg BW IV, −120 min",23.85 ng/mL
same,Plasma Rat Growth Hormone,"0.001 mg/kg BW SC, 15 min",36.7 ng/mL
same,Plasma Rat Growth Hormone,"0.001 mg/kg BW SC, 30 min",14.2 ng/mL
same,Plasma Rat Growth Hormone,"0.001 mg/kg BW SC, 60 min",26.85 ng/mL
same,Plasma Rat Growth Hormone,"0.001 mg/kg BW SC, 120 min",17.8 ng/mL
same,Plasma Rat Growth Hormone,"0.001 mg/kg BW SC, 300 min",21.85 ng/mL
same,GH AUC 120 min,0.001 mg/kg BW SC,2914
same,GH AUC 300 min,0.001 mg/kg BW SC,6482
same,Plasma Rat Growth Hormone,"0.001 mg/kg BW SC, −120 min",20.15 ng/mL
same,Plasma Rat Growth Hormone,"0.01 mg/kg BW SC, 15 min",190.4 ng/mL
same,Plasma Rat Growth Hormone,"0.01 mg/kg BW SC, 30 min",31.9 ng/mL
same,Plasma Rat Growth Hormone,"0.01 mg/kg BW SC, 60 min",8.5 ng/mL
same,Plasma Rat Growth Hormone,"0.01 mg/kg BW SC, 120 min",7.6 ng/mL
same,Plasma Rat Growth Hormone,"0.01 mg/kg BW SC, 300 min",11.95 ng/mL
same,GH AUC 120 min,0.01 mg/kg BW SC,5153
same,GH AUC 300 min,0.01 mg/kg BW SC,6913
same,Plasma Rat Growth Hormone,"0.01 mg/kg BW SC, −120 min",20.4 ng/mL
same,Plasma Rat Growth Hormone,"0.03 mg/kg BW IV, 4 min",68.45 ng/mL
same,Plasma Rat Growth Hormone,"0.03 mg/kg BW IV, 10 min",254.65 ng/mL
same,Plasma Rat Growth Hormone,"0.03 mg/kg BW IV, 15 min",75.1 ng/mL
same,Plasma Rat Growth Hormone,"0.03 mg/kg BW IV, 45 min",33.4 ng/mL
same,Plasma Rat Growth Hormone,"0.03 mg/kg BW IV, 300 min",38.75 ng/mL
same,GH AUC 45 min,0.03 mg/kg BW IV,3407
same,GH AUC 300 min,0.03 mg/kg BW IV,12060
same,Plasma Rat Growth Hormone,"0.03 mg/kg BW IV, −120 min",43.15 ng/mL
same,Plasma Rat Growth Hormone,"0.03 mg/kg BW SC, 15 min",240.9 ng/mL
same,Plasma Rat Growth Hormone,"0.03 mg/kg BW SC, 30 min",39.05 ng/mL
same,Plasma Rat Growth Hormone,"0.03 mg/kg BW SC, 60 min",9.5 ng/mL
same,Plasma Rat Growth Hormone,"0.03 mg/kg BW SC, 120 min",4.6 ng/mL
same,Plasma Rat Growth Hormone,"0.03 mg/kg BW SC, 300 min",11.25 ng/mL
same,GH AUC 120 min,0.03 mg/kg BW SC,6192
same,GH AUC 300 min,0.03 mg/kg BW SC,7618
same,Plasma Rat Growth Hormone,"0.03 mg/kg BW SC, −120 min",36.1 ng/mL
same,Plasma Rat Growth Hormone,"0.1 mg/kg BW SC, 15 min",252.4 ng/mL
same,Plasma Rat Growth Hormone,"0.1 mg/kg BW SC, 30 min",43.8 ng/mL
same,Plasma Rat Growth Hormone,"0.1 mg/kg BW SC, 60 min",7.65 ng/mL
same,Plasma Rat Growth Hormone,"0.1 mg/kg BW SC, 120 min",4.45 ng/mL
same,Plasma Rat Growth Hormone,"0.1 mg/kg BW SC, 300 min",18.7 ng/mL
same,GH AUC 120 min,0.1 mg/kg BW SC,6423
same,GH AUC 300 min,0.1 mg/kg BW SC,8507
same,Plasma Rat Growth Hormone,"0.1 mg/kg BW SC, −120 min",20.4 ng/mL
same,Plasma Rat Growth Hormone,"0.3 mg/kg BW SC, 15 min",247.9 ng/mL
same,Plasma Rat Growth Hormone,"0.3 mg/kg BW SC, 30 min",133.5 ng/mL
same,Plasma Rat Growth Hormone,"0.3 mg/kg BW SC, 60 min",16.75 ng/mL
same,Plasma Rat Growth Hormone,"0.3 mg/kg BW SC, 120 min",4.00 ng/mL
same,Plasma Rat Growth Hormone,"0.3 mg/kg BW SC, 300 min",21.8 ng/mL
same,GH AUC 120 min,0.3 mg/kg BW SC,8636
same,GH AUC 300 min,0.3 mg/kg BW SC,10958
same,Plasma Rat Growth Hormone,"0.3 mg/kg BW SC, −120 min",20.7 ng/mL
same,Plasma Rat Growth Hormone,"1.00 mg/kg BW SC, 15 min",270.0 ng/mL
same,Plasma Rat Growth Hormone,"1.00 mg/kg BW SC, 30 min",155.85 ng/mL
same,Plasma Rat Growth Hormone,"1.00 mg/kg BW SC, 60 min",24.35 ng/mL
same,Plasma Rat Growth Hormone,"1.00 mg/kg BW SC, 120 min",15.85 ng/mL
same,Plasma Rat Growth Hormone,"1.00 mg/kg BW SC, 300 min",28.85 ng/mL
same,GH AUC 120 min,1.0 mg/kg BW SC,10425
same,GH AUC 300 min,1.0 mg/kg BW SC,14448
same,Plasma Rat Growth Hormone,"1.00 mg/kg BW SC, −120 min",88.95 ng/mL
same,Plasma Rat Growth Hormone,"3.0 mg/kg BW IV, 4 min",38.7 ng/mL
same,Plasma Rat Growth Hormone,"3.0 mg/kg BW IV, 10 min",36.95 ng/mL
same,Plasma Rat Growth Hormone,"3.0 mg/kg BW IV, 15 min",83.65 ng/mL
same,Plasma Rat Growth Hormone,"3.0 mg/kg BW IV, 45 min",41.6 ng/mL
same,Plasma Rat Growth Hormone,"3.0 mg/kg BW IV, 300 min",56.7 ng/mL
same,GH AUC 45 min,3.0 mg/kg BW IV,2384
same,GH AUC 300 min,3.0 mg/kg BW IV,14299
same,Plasma Rat Growth Hormone,"3.0 mg/kg BW IV, −120 min",48.6 ng/mL
same,Plasma Rat Growth Hormone,"3.00 mg/kg BW SC, 15 min",453.0 ng/mL
same,Plasma Rat Growth Hormone,"3.00 mg/kg BW SC, 30 min",181.55 ng/mL
same,Plasma Rat Growth Hormone,"3.00 mg/kg BW SC, 60 min",59.4 ng/mL
same,Plasma Rat Growth Hormone,"3.00 mg/kg BW SC, 120 min",4.45 ng/mL
same,Plasma Rat Growth Hormone,"3.00 mg/kg BW SC, 300 min",47.9 ng/mL
same,GH AUC 120 min,3.0 mg/kg BW SC,15562
same,GH AUC 300 min,3.0 mg/kg BW SC,20273
same,Plasma Rat Growth Hormone,"3.00 mg/kg BW SC, −120 min",20.05 ng/mL
same,GH secretion compared with natural hGHRH(1-44)NH2 (pulse amplitude and AUC),rat,twice larger
same,In vivo potency compared with the natural 44 amino acid GHRH,rat and dog,at least two times more potent in vivo
same,Somatotroph desensitization,"rat, highest single IV dose",induced transient somatotroph desensitization
same,"GH secretion into peripheral blood, dose dependence","rat, intravenous and subcutaneous",dose-dependent response
same,Time of peak GH secretion,"rat, intravenous injection",4 to 10 min
same,Time of peak GH secretion,"rat, single subcutaneous injection",10 to 15 min
